# Results as given in article PMC5958115, “A novel small molecule chaperone of rod opsin and its potential therapy for retinal degeneration” (Nature Communications, 2018).
# pEC50: −log10 of the molar value. Like-named read-outs stand apart in the source and are kept apart here.
# Tests used:
# rod opsin = biological target: T1, rod opsin (Mus musculus, UniProt P15409); assay: cAMP quantification assay in NIH3T3-(WT-opsin/GFP) cells with forskolin; type: cell-based
# T1 construct: expressed in transfected cells
# Description: NIH3T3-(Opsin/GFP) and NIH3T3-(GFP) were plated in two 96-well plates at a density of 50,000 cells per well in 100 µL of DMEM medium containing 10% FBS and antibiotics. After 24 h, cells were washed with Krebs Ringer bicarbonate buffer containing glucose (KRBG), and incubated with KRBG buffer containing 100 µM cAMP specific phosphodiesterase inhibitor, Ro 20–1724 (Tocris, UK) at RT for 10 min. […] While one plate then was wrapped with aluminum foil, the second plate was exposed to regular room light. Both plates were kept in a cell culture incubator for 15 min at 37 °C in 5% CO2. Levels of accumulated cAMP were detected with the Catchpoint cAMP fluorescent assay kit (Molecular Devices, Sunnyvale, CA USA) and the fluorescence with excitation/emission at 530/590 nm was read with a Flexstation3 plate reader (Molecular Devices) as described in the manufacturer’s protocol.
# NIH3T3 cells = assay: Cell number in high-content imaging of NIH3T3 cells; type: cell-based, mouse
# Description: To characterize the effect of active compounds on the localization of P23H-mutant opsin in mammalian cells, an image-based assay was used with cells immunostained for WT or P23H-mutant opsin protein[18]. Briefly, NIH3T3-(P23H opsin/GFP) or NIH3T3-(WT-opsin/GFP) cells were seeded at 5000 cells per well in a 384-well cell-carrier plate (PerkinElmer) and incubated at 37 °C with 5% CO2 for 2 h. Cells were treated with compounds as described for the β-Gal fragment complementation assay and incubated in assay medium for 24 h. The assay medium then was aspirated, and cells were fixed with 4% paraformaldehyde at 20 µL per well for 20 min at RT. […] Fluorescence images were obtained with the Operetta High Content Imaging System (PerkinElmer) using a ×20 long objective. Five fields were taken of each well for cell images using three channels for fluorescence: GFP (100 ms), Cy3 (300 ms), and DAPI (50 ms). Images were analyzed with Acapella software from the Columbus data storage and analysis system (PerkinElmer)[18]. For cells immunostained with opsin on the non-permeabilized cell membrane only, an average of total fluorescence intensity of Cy3 per cell was used to quantify opsin in each well of the 384-well plate. […]
# [1] = Metabolic stability in mouse liver microsomes; type: in vitro ADME; conditions: 5 µM, NADPH, 37 °C
# Description: A standard metabolic stability assay was performed in the presence of mouse or human liver microsomes. YC-001 (5 µM) was incubated with the microsomes (0.125 mg mL^−1) resuspended in 0.2 mL of PBS buffer, pH 7.4 composed of 10 mM Na2HPO4, 1.8 mM KH2PO4, 137 mM NaCl, and 2.7 mM KCl. The enzymatic reaction to produce oxidized metabolites was initiated by addition of NADPH (1 mM). Samples were incubated at 37 °C for up to 240 min. Incubation without the cofactor was conducted in parallel to assess NADPH-independent clearance. The reactions were stopped with 0.2 mL of methanol followed by 0.3 mL chloroform. Residual YC-001 was extracted by vigorous shaking. To facilitate phase separation, the samples were spun down for 2 min, 15,000×g. The chloroform fraction was collected, dried down, and the extracted organic compounds were redissolved in 0.2 mL of methanol. To quantify YC-001, the samples were injected onto an Eclipse XDB-C18 column (4.6 × 150 mm, 5 µm) (Agilent Technologies) equilibrated with solvent composed of 30% acetonitrile in water (v/v), and 0.1% formic acid. YC-001 was eluted in a gradient of acetonitrile in water (30–100%) developed within 15 min at a flow rate of 1 mL min^−1, detected at 350 nm, and quantified by correlating peak areas with known quantities of an original synthetic standard. […]
# T1 sequence (P15409 whole entry): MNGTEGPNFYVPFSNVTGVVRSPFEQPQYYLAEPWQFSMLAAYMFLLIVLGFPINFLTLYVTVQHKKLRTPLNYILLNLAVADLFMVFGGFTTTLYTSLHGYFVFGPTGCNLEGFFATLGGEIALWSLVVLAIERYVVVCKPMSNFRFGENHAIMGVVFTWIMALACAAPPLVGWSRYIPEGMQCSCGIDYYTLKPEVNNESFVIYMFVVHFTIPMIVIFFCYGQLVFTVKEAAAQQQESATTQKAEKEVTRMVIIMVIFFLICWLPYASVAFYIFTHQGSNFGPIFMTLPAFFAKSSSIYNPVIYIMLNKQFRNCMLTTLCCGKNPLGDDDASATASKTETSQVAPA
SMILES,fold increase in the EC50 of 9-cis-retinal (rod opsin; 40 μM YC-001 co-treatment vs 9-cis-retinal alone) [fold],"pEC50 (rod opsin; 9-cis-retinal alone, under light, read-out: EC50, cAMP levels)",concentration that euthanized most cells (NIH3T3 cells; 24 h treatment),"pEC50 (rod opsin; YC-001 alone, dark or light, read-out: EC50, increase in cAMP levels)","pEC50 (rod opsin; YC-001 with 1 μM 9-cis-retinal, under light, read-out: EC50, increase in cAMP levels)",initial clearance in liver microsomes [1],effect on cell number (NIH3T3 cells; up to 40 µM)
"CC1=C(/C=C/C(C)=C\C=C\C(C)=C\C=O)C(C)(C)CCC1 [9-cis-retinal, reference compound]",3,7.12,higher than 10 µM,–,–,–,–
O=C1OCC(c2ccc(Cl)s2)=C1c1cccs1 [YC-001],–,–,–,5.09,4.52,"even higher initial clearance compared to the fast clearance drug, verapamil",did not affect cell number
